“Also recorded” adds a separate entry of the source.
Columns and labels:
Format in all cases: in vivo, human
[1] = Urine pharmacokinetics, single ascending dose and food effect studies; conditions: for CLR (renal clearance) / Max_Rate (maximum observed excretion rate) / Total %fe / Total Ae: mean (SD); for Max_Rate (maximum observed excretion rate) / Total %fe / Total Ae / Tmax_Rate: urine; for Tmax_Rate: median (min, max)
Procedure: Blood samples (4 mL) were obtained by direct venipuncture into K2 EDTA tubes at 0.5 h pre-dose and at 0.5, 1, 1.5, 2, 2.5, 3, 5, 7, 9, 12, 24, 26, 28, 36, 48 and 144-hours post-dose. […] Urine samples for PK quantification were collected at pre-dose and 2, 5, 12, 24, 36 and 144-hours post-dose.
Determination of plasma and urine concentrations of VU319 and metabolite VU0481424 (VU424) was carried out in compliance with Good Laboratory Practice using a validated method at Illinois Institute of Technology Research Institute (IITRI) laboratories. Pharmacokinetic endpoints included the following VU319 parameters for plasma: area under the plasma concentration-time curve (AUC0 − 48); area under the plasma concentration-time curve extrapolated to infinity (AUC0−∞); percentage of the extrapolated area under the plasma concentration-time curve (%AUCextrap); maximum observed plasma concentration (Cmax); time (in hours) at which Cmax occurred (Tmax); clearance (Cl/F); elimination half-life (t1/2) and volume of distribution (Vd/F). Pharmacokinetic endpoints for VU319 for urine included the following parameters: renal clearance (CLu); amount excreted in urine (Ae) and percent excreted in urine (Ae%).
Single-dose PK parameters were derived from the plasma time concentrations and urinary concentrations. Pharmacokinetic parameters were summarized for each dose group using standard descriptive statistics. Summary statistics (mean, SD, min, max, coefficient of variation %) were calculated for each PK parameter. Plasma samples collected outside of the permitted windows (± 5 min for 0 to 48 h, inclusive; ±3 h for 72 to 144 h, inclusive) were flagged, footnoted in listings of PK concentration data, and excluded from the summary statistics and mean graphs of concentration data. However, these values were used in the calculation of the PK parameters and were also included in the individual concentration/time listings and figures. In this study, no concentration values were excluded due to implausibility.
Missing pre-dose PK concentrations were imputed as 0 in PK parameter calculations. Otherwise, missing data were not imputed. Actual post-dose sampling times were used in the calculation of plasma PK parameters and in the generation of individual concentration-time profiles. Nominal sampling times were used as a replacement for unknown or missing actual times and for the pre-dose values. Nominal sampling timepoints were used in the generation of mean plots and summary tables. For urine samples, nominal intervals were used. All PK analyses were performed using Statistical Analysis Software (SAS®; SAS Institute Inc., Cary, NC) version 9.4.

healthy participants [2] = experiment: Treatment emergent adverse event (TEAE) monitoring
Procedure: (§1) Safety and tolerability were assessed throughout the study via treatment emergent adverse event (TEAE) monitoring, vital signs (blood pressure, pulse rate, respiration rate, oral temperature), physical examinations, 12-lead ECGs, and clinical laboratory parameters including complete blood count (CBC), coagulation, hematology, clinical chemistry assessments, and urinalysis. Safety laboratory tests were drawn at pre-dose and at 5, 24, 36 and 144-hours post-dose for 60–400 mg Cohorts; and at 24, 48, 72 and 144-hours post-dose for the 600 mg and Food Effect Cohort. ECG assessments were conducted at pre-dose and at 1, 2, 3, 5, 9, 24, 36 and 144-hours post-dose for 60–400 mg Cohorts; and at 2, 3, 5, 9, 24, 36, 72 and 144-hours post-dose for the 600 mg and Food Effect Cohort. All adverse events (AEs) were assessed by the investigator for severity and relationship to study medication or study procedures.
All AEs were coded using the Medical Dictionary for Regulatory Activities (MedDRA) version 22.0. All AEs were listed, and the emergence of TEAEs were categorized by body system affected and analyzed to determine whether they were related to treatment. Analysis of TEAEs for VU319 vs. Placebo were completed using Fisher’s Exact Test. Assessment of the grade of toxicity or relation to the study drug for each adverse event was determined by the Investigator. Changes in vital signs, physical examination, and laboratory tests were collected. Changes in vital signs from pre-dose to 48 h post-dose were placed into 10-time bins and assessed using mixed-measures ANOVA with the time bins as the within-subjects factor and dose as the between-subjects factor. To assess changes is QT analyses with respect to VU319 concentration, we calculated the maximal change in QTcF from baseline for each participant. We assessed the relationship between these maximal changes from baseline with the participant’s Cmax using Pearson correlations. Outlier QTcF values (> 450 ms) were also assessed against PK concentrations to examine it there was any relationship using Pearson correlations. Analyses of safety data was completed by SAS version 9.4.

healthy participants [3] = experiment: Clinical laboratory parameters; conditions: food effect study, 120 mg; 72 h post-dose, closer to normal by 144 h
Procedure: as §1

[4] = VU319 120 mg oral, fasted, food effect study
[5] = VU319 120 mg oral, fed, food effect study

In the case of `Cn1cc2c(-c3cc(F)c(CN4Cc5ncccc5C4=O)c(F)c3)cccc2n1` [VU319], the “CLR (renal clearance)” value ([1]; VU319 60 mg oral, SAD) is reported as 1.25 (0.303) mL/h, the “CLR (renal clearance)” value ([1]; VU319 120 mg oral, SAD) is reported as 1.16 (0.537) mL/h and the “CLR (renal clearance)” value [1, 4] is reported as 1.24 (0.36) mL/h. For the same molecule, the “CLR (renal clearance)” value [1, 5] was 1.48 (0.4) mL/h, the “CLR (renal clearance)” value ([1]; VU319 240 mg oral, SAD) was 1.13 (0.657) mL/h and the “CLR (renal clearance)” value ([1]; VU319 400 mg oral, SAD) was 0.97 (0.42) mL/h. The “CLR (renal clearance)” value ([1]; VU319 600 mg oral, SAD) was 0.673 (0.34) mL/h, the “Total %fe (fraction of the dose excreted unchanged in urine)” value ([1]; all dose levels) was less than 0.1% and the “Max_Rate (maximum observed excretion rate)” value ([1]; VU319 60 mg oral, SAD) was 0.0024 (0.0012) mg/h. For the same molecule, the Total %fe ([1]; VU319 60 mg oral, SAD) was 0.075 (0.034) %, the “Total Ae” value ([1]; VU319 60 mg oral, SAD) was 0.045 (0.021) mg and the Tmax_Rate ([1]; VU319 60 mg oral, SAD) was 3.5 (3.5, 8.5) h. The “Max_Rate (maximum observed excretion rate)” value ([1]; VU319 120 mg oral, SAD) was 0.0032 (0.0025) mg/h, the Total %fe ([1]; VU319 120 mg oral, SAD) was 0.051 (0.026) % and the “Total Ae” value ([1]; VU319 120 mg oral, SAD) was 0.061 (0.032) mg. For the same molecule, the Tmax_Rate ([1]; VU319 120 mg oral, SAD) was 8.5 (3.5, 18.0) h, the “Max_Rate (maximum observed excretion rate)” value [1, 4] was 0.0025 (0.0011) mg/h and the “Total Ae” value [1, 4] was 0.068 (0.026) mg. The Tmax_Rate [1, 4] was 8.5 (3.5, 30) h, the “Max_Rate (maximum observed excretion rate)” value [1, 5] was 0.005 (0.003) mg/h and the Total %fe [1, 5] was 0.075 (0.028) %. The “Total Ae” value [1, 5] was 0.091 (0.034) mg, the Tmax_Rate [1, 5] was 6.0 (1.0, 8.5) h and the “Max_Rate (maximum observed excretion rate)” value ([1]; VU319 240 mg oral, SAD) was 0.0053 (0.0024) mg/h. The Total %fe ([1]; VU319 240 mg oral, SAD) was 0.039 (0.017) %, the “Total Ae” value ([1]; VU319 240 mg oral, SAD) was 0.093 (0.042) mg and the Tmax_Rate ([1]; VU319 240 mg oral, SAD) was 6.0 (3.5, 18.0) h. For the same molecule, the “Max_Rate (maximum observed excretion rate)” value ([1]; VU319 400 mg oral, SAD) was 0.0056 (0.0018) mg/h, the Total %fe ([1]; VU319 400 mg oral, SAD) was 0.0297 (0.015) % and the “Total Ae” value ([1]; VU319 400 mg oral, SAD) was 0.12 (0.058) mg. For the same molecule, the Tmax_Rate ([1]; VU319 400 mg oral, SAD) was 6.0 (3.5, 30.0) h, the “Max_Rate (maximum observed excretion rate)” value ([1]; VU319 600 mg oral, SAD) was 0.0051 (0.0027) mg/h and the Total %fe ([1]; VU319 600 mg oral, SAD) was 0.024 (0.011) %. For the same molecule, the “Total Ae” value ([1]; VU319 600 mg oral, SAD) was 0.143 (0.065) mg, the Tmax_Rate ([1]; VU319 600 mg oral, SAD) was 6.0 (3.5, 42.0) h and the “TEAEs, VU319 vs placebo (Fisher's Exact Tests)” value (healthy participants [2]; in vivo) was “did not show a significant difference”. For the same molecule, the “number of TEAEs across the 5 active dose cohorts” value (healthy participants [2]; in vivo) was 33, the “serious TEAEs, deaths, discontinuations” value (healthy participants [2]; single oral doses 60-600 mg) was “No TEAE was rated as serious; also recorded: no serious TEAEs or discontinuations occurred; also recorded: no deaths, serious TEAEs, or TEAEs leading to discontinuation” and the tolerability (healthy participants [2]; single oral doses 60 to 600 mg, healthy volunteers aged 18-55) was “Tolerability was good; also recorded: generally well tolerated”. The “maximum tolerated dose (MTD)” value (healthy participants [2]; single oral doses up to 600 mg) was “not achieved” and the “ALT and AST levels” value (healthy participants [3]) was “moderate increase in ALT and AST levels reported by one participant”.

From PMC12211128, “Safety, tolerability, pharmacokinetic and pharmacodynamic effects of the muscarinic M1 positive allosteric modulator VU0467319 for Alzheimer’s disease: a single ascending-dose study in healthy participants” (Alzheimer's Research & Therapy, 2025)
